Converted amounts (≈) assume the structure as drawn. Where two headings read alike, the source gives them in different places.
Key:
[1] = tested on: S. typhimurium TA100; experiment: MIC microdilution assay, S. typhimurium TA100; type: cell-based; settings: Salmonella enterica, 20 h, read-out: MIC S. typhimurium TA100
Procedure: (§1) The tests were performed using the micro dilution method.
(§2) The determination of MIC values was performed according to the ninth edition of the Approved Standard M07-A9 (CLSI. Methods for Dilution Antimicrobial Susceptibility Tests for Bacteria That Grow Aerobically; Approved Standard-Ninth Edition. CLSI document M07-A9. Wayne, PA: Clinical and Laboratory Standards Institute; 2012.)
(§3) The test was carried out for different bacterial strains (E. coli DSM 1116, E. coli BW25113 [gram negative], B. subtilis DSM 10 [gram positive], M. luteus DSM 1790 [gram positive], S. typhimurium TA100 [gram negative]) and M. phlei DSM 750. 20 μL of cryo stock of each strain were inoculated in 20 mL of LB media (Lysogeny broth: 10 g/L peptone, 5 g/L yeast extract, 5 g/L NaCl) followed by incubation over night at 37° C., 200 rpm. The test inoculum was adjusted by the 0.5 McFarland Standard (OD625 from 0.08 to 0.1). Within 15 min of preparation, the adjusted inoculum suspension was diluted in MHBII media (BBL TM Mueller-Hinton Broth II, Becton, Dickinson and Company, New Jersey/USA) so that each well contained approximately 5×10^5 CFU/mL in a final volume of 100 μL. 95 μL of the inoculum were applied per well and 5 μL of the (diluted) antibiotic substance were added.
(§4) Previously the dry antibiotic compounds were dissolved in DMSO (100%) with a concentration of 2560 μg/mL and the resulting stock solutions were further diluted in DMSO (100%). 5 μL of each antibiotic dilution were applied to the microdilution tray to reach final concentrations of 64 μg/mL to 0.008 μg/mL. One row of each well plate was left as a growth control without antibiotic substances and another row of the microdilution tray was used as sterility control (only MHB II-media). The antimicrobial effect of the solvent (DMSO) was tested by adding 5 μL DMSO to several wells without antibiotics. Purity check and cell titer control were performed according to International Standard M07-A9 on Mueller-Hinton II Agar (Mueller Hinton II Broth, 15 g/L agar-agar). Both microdilution trays and agar plates were incubated at 37° C. for 20 h and subsequently analyzed visually.

[2] = tested on: E. coli BW25113; experiment: MIC determination (medium: MHBII/human serum (1:1)); type: cell-based; settings: Escherichia coli
Procedure: The test was carried out for bacterial strain, E. coli BW25113 (Gram-negative).
First, 20 μl of glycerol stock of the strain was inoculated in 20 mL LB followed by incubation overnight at 37° C., 200 r.p.m.
The serum was subjected to a heat shock (56° C./30 min in a water bath) before use.
The test inoculum was adjusted by the 0.5 McFarland Standard, so that each well contained approximately 5×10^5 c.f.u. mL^−1 in a final volume of 100 μL. For the adjustment of the test inoculum, MHBII medium and the human serum were used in a mixing ratio of 1:1.
For dilutions, the dry powders were dissolved in DMSO with a concentration of 2.56 mg mL-1 and serially diluted in DMSO (100%). Initial solution and serial dilutions of Ciprofloxacin were prepared in 0.1 N HCl.
Then, 95 μL of the adjusted inoculum was applied per well and 5 μl of each antibiotic dilution was applied to the microdilution tray to reach final concentrations of 8 to 0.016 μg ml^−1.
The antimicrobial effect of the solvent (DMSO or 0.1 N HCL) was tested by adding 5 μL DMSO or 0.1 N HCL to several wells.
One row of each well plate served as a growth control without antibiotic substances, and another row of the microdilution tray served as sterility control (MHB II-media).

[3] = tested on: M. phlei DSM 750; experiment: MIC microdilution assay, M. phlei DSM 750; type: cell-based, Mycobacterium phlei; settings: Mycolicibacterium phlei, read-out: MIC M. phlei DSM 750
Procedure: as §1, §2, §3, §4

[4] = tested on: E. coli BW25113; experiment: MIC microdilution assay, E. coli BW25113; type: cell-based; settings: Escherichia coli, read-out: MIC E. coli BW25113
Procedure: as §1, §2, §3, §4

[5] = tested on: Micrococcus luteus DSM1790; experiment: MIC microdilution assay, M. luteus DSM 1790; type: cell-based; settings: read-out: MIC M. luteus DSM 1790
Procedure: as §1, §2, §3, §4

[6] = tested on: E. coli DSM 1116; experiment: MIC microdilution assay, E. coli DSM 1116; type: cell-based; settings: Escherichia coli, read-out: MIC E. coli DSM1116
Procedure: as §1, §2, §3, §4

[7] = tested on: Bacillus subtilis DSM10; experiment: MIC microdilution assay, B. subtilis DSM 10; type: cell-based; settings: read-out: MIC B. subtilis DSM10
Procedure: as §1, §2, §3, §4

[8] = MHBII medium, 37° C., test range 64 to 0.008 μg/mL
[9] = E. coli BW25113, MHBII/human serum 1:1, test range 8 to 0.016 μg/ml, read-out: MIC E. coli + 50% human serum
[10] = DSM750, MHBII medium, 37° C., 20 h, test range 64 to 0.008 μg/mL
[11] = BW25113, MHBII medium, 37° C., 20 h, test range 64 to 0.008 μg/mL
[12] = DSM1790, MHBII medium, 37° C., 20 h, test range 64 to 0.008 μg/mL
[13] = DSM1116, MHBII medium, 37° C., 20 h, test range 64 to 0.008 μg/mL
[14] = DSM10, MHBII medium, 37° C., 20 h, test range 64 to 0.008 μg/mL

Row | SMILES | MIC [1, 8] [µg/mL] | MIC [2, 9] [µg/mL] | MIC [3, 10] [µg/mL] | MIC [4, 11] [µg/mL] | MIC [5, 12] [µg/mL] | MIC [6, 13] [µg/mL] | MIC [7, 14] [µg/mL] | other results
1 | COc1c(NC(=O)c2ccc(NC(=O)c3ccc(NC(=O)[C@H](Cc4c[nH]nn4)NC(=O)c4ccc(NC(=O)c5cc(=O)c6cc(F)ccc6o5)cc4)cn3)c(OC)c2O)ccc(C(=O)O)c1O (stereo in doubt) [Compound 12] | ≤ 0.016 | 8 |  |  |  |  |  | 
2 | COc1c(NC(=O)c2ccc(NC(=O)c3ccc(NC(=O)[C@H](Cc4c[nH]nn4)NC(=O)c4ccc(NC(=O)c5ccc6nc(C)ccc6c5)cc4)cn3)c(OC)c2O)ccc(C(=O)O)c1O [Compound 1] | ≤ 0.016 | 0.5 | 0.5 (≈ 0.559 µM) | 0.016 (≈ 0.0179 µM) | 0.063 (≈ 0.0704 µM) | 0.016 (≈ 0.0179 µM) | 0.063 (≈ 0.0704 µM) | 
3 | COc1c(NC(=O)c2ccc(NC(=O)c3ccc(NC(=O)[C@H](Cc4c[nH]nn4)NC(=O)c4ccc(NC(=O)c5ccc6ccccc6n5)cc4)cn3)c(OC)c2O)ccc(C(=O)O)c1O (stereo in doubt) [Compound 13] | ≤ 0.016 | 2 |  |  |  |  |  | 
4 | COc1c(NC(=O)c2ccc(NC(=O)c3ccc(NC(=O)[C@H](Cc4c[nH]nn4)NC(=O)c4ccc(NC(=O)c5cnc6ccccc6c5)cc4)cn3)c(OC)c2O)ccc(C(=O)O)c1O [Compound 3] | ≤ 0.016 | 2 |  |  |  |  |  | 
5 | COc1c(NC(=O)c2ccc(NC(=O)c3ccc(NC(=O)[C@H](Cc4c[nH]nn4)NC(=O)c4ccc(NC(=O)c5c[nH]c6ccccc6c5=O)cc4)cn3)c(OC)c2O)ccc(C(=O)O)c1O [Compound 4] | ≤ 0.016 | 2 |  |  |  |  |  | 
6 | COc1c(NC(=O)c2ccc(NC(=O)c3ccc(NC(=O)C(Cc4c[nH]nn4)NC(=O)c4ccc(NC(=O)c5ccc6nn[nH]c6c5)cc4)cn3)c(OC)c2O)ccc(C(=O)O)c1O (stereo not drawn) [Compound 16] | 0.125 (≈ 0.144 µM) | 8 | 4 to 8 (≈ 4.59 to 9.19 µM) | 0.031 (≈ 0.0356 µM) | 1 (≈ 1.15 µM) | 0.063 (≈ 0.0723 µM) | 0.5 to 1 (≈ 0.574 to 1.15 µM) | 
7 | COc1c(NC(=O)c2ccc(NC(=O)c3ccc(NC(=O)C(Cc4c[nH]nn4)NC(=O)c4ccc(NC(=O)c5ccc6ncsc6c5)cc4)cn3)c(OC)c2O)ccc(C(=O)O)c1O (stereo not drawn) [Compound 8] | ≤ 0.016 | 0.5 | 2 (≈ 2.26 µM) | ≤ 0.016 |  | ≤ 0.016 |  | 
8 | COc1c(NC(=O)c2ccc(NC(=O)c3ccc(NC(=O)[C@H](Cc4c[nH]nn4)NC(=O)c4ccc(NC(=O)c5ccc6ncccc6c5)cc4)cn3)c(OC)c2O)ccc(C(=O)O)c1O (stereo in doubt) [Compound 2] | ≤ 0.016 | 4 |  |  |  |  |  | 
9 | COc1c(NC(=O)c2ccc(NC(=O)c3ccc(NC(=O)C(Cc4c[nH]nn4)NC(=O)c4ccc(NC(=O)/C(C)=C/c5ccc(O)cc5)cc4)cn3)c(OC)c2O)ccc(C(=O)O)c1O (stereo not drawn) [3^RD GEN Alb i, reference compound] | 0.016 (≈ 0.0181 µM) | 0.5 | 0.25 (≈ 0.282 µM) | 0.016 (≈ 0.0181 µM) | 0.031 (≈ 0.035 µM) | 0.016 (≈ 0.0181 µM) | 0.031 (≈ 0.035 µM) | 
10 | COc1c(NC(=O)c2ccc(NC(=O)c3ccc(NC(=O)C(Cc4c[nH]nn4)NC(=O)c4ccc(NCc5ccc6ncccc6c5)cc4)cn3)c(OC)c2O)ccc(C(=O)O)c1O (stereo not drawn) [Compound 15] | 0.031 (≈ 0.0358 µM) | 4 to 8 | 2 (≈ 2.31 µM) | 0.031 (≈ 0.0358 µM) | 0.125 (≈ 0.144 µM) | 0.063 (≈ 0.0727 µM) | 0.25 to 0.5 (≈ 0.288 to 0.577 µM) | 
11 | CCn1cc(C(=O)Nc2ccc(C(=O)N[C@@H](Cc3c[nH]nn3)C(=O)Nc3ccc(C(=O)Nc4ccc(C(=O)Nc5ccc(C(=O)O)c(O)c5OC)c(O)c4OC)nc3)cc2)c(=O)c2ccc(C)nc21 [Compound 11] | ≤ 0.016 | 8 |  |  |  |  |  | 
12 | COc1c(NC(=O)c2ccc(NC(=O)c3ccc(NC(=O)[C@H](Cc4c[nH]nn4)NC(=O)c4ccc(NC(=O)c5cc6ccccc6cn5)cc4)cn3)c(OC)c2O)ccc(C(=O)O)c1O (stereo in doubt) [Compound 10] |  |  |  |  |  |  |  | MIC ([3]; DSM750, 20 h): 1 µg/mL (≈ 1.14 µM); MIC [1]: ≤ 0.016 µg/mL; MIC ([4]; BW25113, 20 h): ≤ 0.016 µg/mL; MIC ([5]; DSM1790, 20 h): 0.063 µg/mL (≈ 0.0715 µM); MIC ([6]; DSM1116, 20 h): ≤ 0.016 µg/mL; MIC ([7]; DSM10, 20 h): 0.063 µg/mL (≈ 0.0715 µM); MIC ([2]; BW25113, read-out: MIC E. coli + 50% human serum): 1 µg/mL
13 | COc1c(NC(=O)c2ccc(NC(=O)c3ccc(NC(=O)C(Cc4c[nH]nn4)NC(=O)c4ccc(NC(=O)c5ccc6nc[nH]c6c5)cc4)cn3)c(OC)c2O)ccc(C(=O)O)c1O (stereo not drawn) [Compound 9] | 0.125 (≈ 0.144 µM) | ≥ 8 | 8 (≈ 9.2 µM) | 0.125 (≈ 0.144 µM) | 2 (≈ 2.3 µM) | 0.125 (≈ 0.144 µM) | 2 (≈ 2.3 µM) | 
14 | COc1c(NC(=O)c2ccc(NC(=O)c3ccc(NC(=O)[C@H](Cc4c[nH]nn4)NC(=O)c4ccc(NC(=O)c5ccc6nccnc6c5)cc4)cn3)c(OC)c2O)ccc(C(=O)O)c1O [Compound 7] | ≤ 0.016 | 1 |  |  |  |  |  | 
15 | COc1c(NC(=O)c2ccc(NC(=O)c3ccc(NC(=O)[C@H](Cc4c[nH]nn4)NC(=O)c4ccc(NC(=O)c5cc6cc(O)ccc6[nH]5)cc4)cn3)c(OC)c2O)ccc(C(=O)O)c1O (stereo in doubt) [Compound 14] | 0.125 (≈ 0.141 µM) | ≥ 8 |  | 0.125 (≈ 0.141 µM) |  |  |  | 
16 | CCn1cc(C(=O)Nc2ccc(C(=O)N[C@@H](Cc3c[nH]nn3)C(=O)Nc3ccc(C(=O)Nc4ccc(C(=O)Nc5ccc(C(=O)O)c(O)c5OC)c(O)c4OC)nc3)cc2)c(=O)c2cc3c(cc21)OCO3 [Compound 6] | ≤ 0.016 | 0.5 |  |  |  |  |  | 
